Source: the supplement of paper PMC10307832

Assays:
Experiment in all cases: relative viability (nuclei count vs DMSO), 5 days (fraction); higher = more cells survive
Irinotecan + Pictilisib = compound: CCc1c2c(nc3ccc(OC(=O)N4CCC(N5CCCCC5)CC4)cc13)-c1cc3c(c(=O)n1C2)COC(=O)[C@]3(O)CC [Irinotecan] + CS(=O)(=O)N1CCN(Cc2cc3nc(-c4cccc5[nH]ncc45)nc(N4CCOCC4)c3s2)CC1 [Pictilisib] (partner 1 µM)
How it was run: (§1)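 Each reported value is a median over duplicate plates. It expresses relative viability: treated-well nuclei count divided by vehicle-well nuclei count. Lung cancer cell lines in 1536-well plates were dosed by pin tool a day after seeding, alone with one drug or with a fixed anchor-drug dose plus five library-drug doses (not always all listed) in √10 steps, and nuclei were counted after 5 days.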

Irinotecan + Foretinib = compound: CCc1c2c(nc3ccc(OC(=O)N4CCC(N5CCCCC5)CC4)cc13)-c1cc3c(c(=O)n1C2)COC(=O)[C@]3(O)CC [Irinotecan] + COc1cc2c(Oc3ccc(NC(=O)C4(C(=O)Nc5ccc(F)cc5)CC4)cc3F)ccnc2cc1OCCCN1CCOCC1 [Foretinib] (partner 0.25 µM)
How it was run: as §1

RU-SKI 43 + Pemetrexed = compound: CC[C@@H](C)CNCC(=O)N1CCC2=C([C@@H]1COC3=CC=CC(=C3)C)C=CS2 [RU-SKI 43] + Nc1nc2[nH]cc(CCc3ccc(C(=O)N[C@@H](CCC(=O)O)C(=O)O)cc3)c2c(=O)[nH]1 [Pemetrexed] (partner 0.2 µM)
How it was run: as §1

MK-8033 + Alpelisib = compound: Cn1cc(-c2cnc3ccc4ccc(CS(=O)(=O)NCc5ccccn5)cc4c(=O)c3c2)cn1 [MK-8033] + Cc1nc(NC(=O)N2CCC[C@H]2C(N)=O)sc1-c1ccnc(C(C)(C)C(F)(F)F)c1 [Alpelisib] (partner 2 µM)
How it was run: as §1

Cell Line | relative viability (Irinotecan + Pictilisib; first compound 0.6325 µM) | relative viability (Irinotecan + Pictilisib; first compound 2 µM) | relative viability (Irinotecan + Pictilisib; first compound 6.325 µM) | relative viability (Irinotecan + Pictilisib; first compound 20 µM) | relative viability (Irinotecan + Foretinib; first compound 0.6325 µM) | relative viability (Irinotecan + Foretinib; first compound 2 µM) | relative viability (Irinotecan + Foretinib; first compound 6.325 µM) | relative viability (Irinotecan + Foretinib; first compound 20 µM) | relative viability (RU-SKI 43 + Pemetrexed; first compound 0.1 µM) | relative viability (RU-SKI 43 + Pemetrexed; first compound 0.3162 µM) | relative viability (RU-SKI 43 + Pemetrexed; first compound 1 µM) | relative viability (RU-SKI 43 + Pemetrexed; first compound 3.162 µM) | relative viability (RU-SKI 43 + Pemetrexed; first compound 10 µM) | relative viability (MK-8033 + Alpelisib; first compound 0.02 µM) | relative viability (MK-8033 + Alpelisib; first compound 0.06325 µM) | relative viability (MK-8033 + Alpelisib; first compound 0.2 µM) | relative viability (MK-8033 + Alpelisib; first compound 0.6325 µM) | relative viability (MK-8033 + Alpelisib; first compound 2 µM)
NCI-H2347 | 0.542 | 0.355 | 0.36 | 0.461 | 0.53 | 0.662 | 0.41 | 0.665 | 0.404 | 0.513 | 0.431 | 0.52 | 0.538 | 1.05 | 0.991 | 1.02 | 1.03 | 0.975
NCI-H2405 |  | 0.477 | 0.326 | 0.132 |  | 0.897 | 0.394 | 0.307 | 1.16 | 1.14 | 1.11 | 1.21 | 1.13 | 0.732 | 0.731 | 0.699 | 0.765 | 0.736
NCI-H3122 | 0.514 | 0.349 | 0.202 | 0.174 | 0.833 | 0.236 | 0.183 | 0.171 | 0.202 | 0.216 | 0.198 | 0.193 | 0.19 | 0.817 | 0.755 | 0.777 | 0.853 | 0.859
PC-3 [JPC-3] | 0.309 | 0.535 | 0.315 | 0.344 | 0.912 | 0.667 | 0.323 | 0.368 | 1.09 | 0.917 | 1.37 | 1.15 | 1.2 | 0.959 |  | 0.998 | 1 | 0.956
PC-14 | 0.652 | 0.425 | 0.257 | 0.194 | 0.935 | 0.806 | 0.431 | 0.189 | 0.132 | 0.13 | 0.133 | 0.151 | 0.13 | 0.888 | 0.878 | 0.87 | 0.898 | 0.804
RERF-LC-KJ | 0.516 | 0.422 | 0.455 | 0.418 | 0.956 | 0.815 | 0.518 | 0.411 | 0.48 | 0.462 | 0.508 | 0.457 | 0.482 | 0.735 | 0.76 | 0.698 | 0.777 | 0.774
SK-LU-1 | 0.444 | 0.447 | 0.322 | 0.247 | 0.623 | 0.382 | 0.295 | 0.224 | 0.969 | 1.16 | 1.07 | 1.04 | 0.939 | 1 | 1.04 | 0.806 | 1.02 | 0.988
SK-MES-1 | 0.336 | 0.319 | 0.254 | 0.257 | 0.915 | 0.644 | 0.441 | 0.285 | 0.962 | 1.13 | 1.12 | 0.964 | 0.916 | 0.927 | 0.811 | 0.89 | 0.936 | 0.96
SW 1573 | 0.435 | 0.37 | 0.173 | 0.155 | 0.848 | 0.786 | 0.463 | 0.195 | 0.674 | 0.942 | 0.991 | 0.867 | 0.759 | 0.817 |  | 0.698 | 0.687 | 0.719
